{"source": "PubChem BioAssay (NCI)", "test_in_all_cases": "inhibition of tumour cell growth, NCI panel, 48 h", "key": {"OVCAR-5 ovarian": {"test_system": "OVCAR-5 ovarian"}, "HS 578T breast": {"test_system": "HS 578T breast"}, "M14 melanoma": {"test_system": "M14 melanoma"}, "SNB-19 CNS": {"test_system": "SNB-19 CNS"}, "UACC-257 melanoma": {"test_system": "UACC-257 melanoma"}, "SK-MEL-2 melanoma": {"test_system": "SK-MEL-2 melanoma"}, "NCI-H226 lung": {"test_system": "NCI-H226 lung"}, "EKVX NSCLC": {"test_system": "EKVX NSCLC"}, "MALME-3M melanoma": {"test_system": "MALME-3M melanoma"}, "NCI/ADR-RES ovarian": {"test_system": "NCI/ADR-RES ovarian"}, "RPMI-8226 leukemia": {"test_system": "RPMI-8226 leukemia"}, "A498 renal": {"test_system": "A498 renal"}, "MCF7 breast": {"test_system": "MCF7 breast"}, "SF-295 CNS": {"test_system": "SF-295 CNS"}, "HCC-2998 colon": {"test_system": "HCC-2998 colon"}, "MDA-MB-231 breast": {"test_system": "MDA-MB-231 breast"}, "NCI-H460 lung": {"test_system": "NCI-H460 lung"}, "SK-MEL-28 melanoma": {"test_system": "SK-MEL-28 melanoma"}, "SNB-75 CNS": {"test_system": "SNB-75 CNS"}, "IGROV1 ovarian": {"test_system": "IGROV1 ovarian"}, "MDA-N": {"test_system": "MDA-N"}, "K-562 leukemia": {"test_system": "K-562 leukemia"}, "SK-OV-3 ovarian": {"test_system": "SK-OV-3 ovarian"}, "UACC-62 melanoma": {"test_system": "UACC-62 melanoma"}, "RXF 393 renal": {"test_system": "RXF 393 renal"}, "HOP-92 NSCLC": {"test_system": "HOP-92 NSCLC"}, "MDA-MB-435": {"test_system": "MDA-MB-435"}, "786-0 renal": {"test_system": "786-0 renal"}, "MOLT-4 leukemia": {"test_system": "MOLT-4 leukemia"}, "UO-31 renal": {"test_system": "UO-31 renal"}, "HT29 colon": {"test_system": "HT29 colon"}, "COLO 205 colon": {"test_system": "COLO 205 colon"}, "OVCAR-3 ovarian": {"test_system": "OVCAR-3 ovarian"}, "LOX IMVI melanoma": {"test_system": "LOX IMVI melanoma"}, "HOP-62 NSCLC": {"test_system": "HOP-62 NSCLC"}, "TK-10 renal": {"test_system": "TK-10 renal"}, "HCT-116 colon": {"test_system": "HCT-116 colon"}, "SF-268 CNS": {"test_system": "SF-268 CNS"}, "U251 CNS": {"test_system": "U251 CNS"}, "DU-145 prostate": {"test_system": "DU-145 prostate"}, "OVCAR-4 ovarian": {"test_system": "OVCAR-4 ovarian"}, "PC-3 prostate": {"test_system": "PC-3 prostate"}, "A549 NSCLC": {"test_system": "A549 NSCLC"}, "T-47D breast": {"test_system": "T-47D breast"}, "OVCAR-8 ovarian": {"test_system": "OVCAR-8 ovarian"}, "SN12C renal": {"test_system": "SN12C renal"}, "SF-539 CNS": {"test_system": "SF-539 CNS"}, "NCI-H522 lung": {"test_system": "NCI-H522 lung"}, "BT-549 breast": {"test_system": "BT-549 breast"}, "CCRF-CEM leukemia": {"test_system": "CCRF-CEM leukemia"}, "ACHN renal": {"test_system": "ACHN renal"}, "KM12 colon": {"test_system": "KM12 colon"}, "HCT-15 colon": {"test_system": "HCT-15 colon"}, "SW-620 colon": {"test_system": "SW-620 colon"}, "SK-MEL-5 melanoma": {"test_system": "SK-MEL-5 melanoma"}, "NCI-H23 lung": {"test_system": "NCI-H23 lung"}}, "note": "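Exposure lasted 48 hours, with cells grown in 96-well plates and compounds tested at five concentrations. TGI marks complete inhibition of growth.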", "data": [{"smiles": "CSc1nc(Cl)c2c(n1)Sc1nc3ccccc3n1C2O", "note": "(stereo unspecified)", "values": [{"measurement": "TGI", "setting": "OVCAR-5 ovarian", "value": "> 45", "unit": "µM"}, {"measurement": "TGI", "setting": "HS 578T breast", "value": "> 68.8", "unit": "µM"}, {"measurement": "TGI", "setting": "M14 melanoma", "value": "> 100", "unit": "µM"}, {"measurement": "TGI", "setting": "SNB-19 CNS", "value": 97.1, "unit": "µM"}, {"measurement": "TGI", "setting": "UACC-257 melanoma", "value": "> 100", "unit": "µM"}, {"measurement": "TGI", "setting": "SK-MEL-2 melanoma", "value": "> 47.4", "unit": "µM"}, {"measurement": "TGI", "setting": "NCI-H226 lung", "value": 95, "unit": "µM"}, {"measurement": "TGI", "setting": "EKVX NSCLC", "value": "> 100", "unit": "µM"}, {"measurement": "TGI", "setting": "MALME-3M melanoma", "value": "> 67.3", "unit": "µM"}, {"measurement": "TGI", "setting": "NCI/ADR-RES ovarian", "value": "> 24.4", "unit": "µM"}, {"measurement": "TGI", "setting": "RPMI-8226 leukemia", "value": 19.5, "unit": "µM"}, {"measurement": "TGI", "setting": "A498 renal", "value": "> 100", "unit": "µM"}, {"measurement": "TGI", "setting": "MCF7 breast", "value": "> 100", "unit": "µM"}, {"measurement": "TGI", "setting": "SF-295 CNS", "value": "> 100", "unit": "µM"}, {"measurement": "TGI", "setting": "HCC-2998 colon", "value": 13.6, "unit": "µM"}, {"measurement": "TGI", "setting": "MDA-MB-231 breast", "value": "> 100", "unit": "µM"}, {"measurement": "TGI", "setting": "NCI-H460 lung", "value": "> 74.6", "unit": "µM"}, {"measurement": "TGI", "setting": "SK-MEL-28 melanoma", "value": "> 100", "unit": "µM"}, {"measurement": "TGI", "setting": "SNB-75 CNS", "value": "> 82.2", "unit": "µM"}, {"measurement": "TGI", "setting": "IGROV1 ovarian", "value": "> 100", "unit": "µM"}, {"measurement": "TGI", "setting": "MDA-N", "value": "> 100", "unit": "µM"}, {"measurement": "TGI", "setting": "K-562 leukemia", "value": "> 100", "unit": "µM"}, {"measurement": "TGI", "setting": "SK-OV-3 ovarian", "value": "> 100", "unit": "µM"}, {"measurement": "TGI", "setting": "UACC-62 melanoma", "value": "> 100", "unit": "µM"}, {"measurement": "TGI", "setting": "RXF 393 renal", "value": 20.8, "unit": "µM"}, {"measurement": "TGI", "setting": "HOP-92 NSCLC", "value": 26.6, "unit": "µM"}, {"measurement": "TGI", "setting": "MDA-MB-435", "value": "> 44.2", "unit": "µM"}, {"measurement": "TGI", "setting": "786-0 renal", "value": 18, "unit": "µM"}, {"measurement": "TGI", "setting": "MOLT-4 leukemia", "value": "> 100", "unit": "µM"}, {"measurement": "TGI", "setting": "UO-31 renal", "value": 24.3, "unit": "µM"}, {"measurement": "TGI", "setting": "HT29 colon", "value": 25.4, "unit": "µM"}, {"measurement": "TGI", "setting": "COLO 205 colon", "value": "> 21.6", "unit": "µM"}, {"measurement": "TGI", "setting": "OVCAR-3 ovarian", "value": "> 26.5", "unit": "µM"}, {"measurement": "TGI", "setting": "LOX IMVI melanoma", "value": 3.9, "unit": "µM"}, {"measurement": "TGI", "setting": "HOP-62 NSCLC", "value": "> 79", "unit": "µM"}, {"measurement": "TGI", "setting": "TK-10 renal", "value": "> 100", "unit": "µM"}, {"measurement": "TGI", "setting": "HCT-116 colon", "value": "> 33.1", "unit": "µM"}, {"measurement": "TGI", "setting": "SF-268 CNS", "value": 55, "unit": "µM"}, {"measurement": "TGI", "setting": "U251 CNS", "value": 15.2, "unit": "µM"}, {"measurement": "TGI", "setting": "DU-145 prostate", "value": 41.9, "unit": "µM"}, {"measurement": "TGI", "setting": "OVCAR-4 ovarian", "value": "> 100", "unit": "µM"}, {"measurement": "TGI", "setting": "PC-3 prostate", "value": "> 100", "unit": "µM"}, {"measurement": "TGI", "setting": "A549 NSCLC", "value": "> 96.4", "unit": "µM"}, {"measurement": "TGI", "setting": "T-47D breast", "value": "> 100", "unit": "µM"}, {"measurement": "TGI", "setting": "OVCAR-8 ovarian", "value": "> 29.5", "unit": "µM"}, {"measurement": "TGI", "setting": "SN12C renal", "value": "> 100", "unit": "µM"}, {"measurement": "TGI", "setting": "SF-539 CNS", "value": 3.8, "unit": "µM"}, {"measurement": "TGI", "setting": "NCI-H522 lung", "value": 7.28, "unit": "µM"}, {"measurement": "TGI", "setting": "BT-549 breast", "value": "> 84.4", "unit": "µM"}, {"measurement": "TGI", "setting": "CCRF-CEM leukemia", "value": 24.6, "unit": "µM"}, {"measurement": "TGI", "setting": "ACHN renal", "value": "> 100", "unit": "µM"}, {"measurement": "TGI", "setting": "KM12 colon", "value": "> 21.2", "unit": "µM"}, {"measurement": "TGI", "setting": "HCT-15 colon", "value": "> 40.2", "unit": "µM"}, {"measurement": "TGI", "setting": "SW-620 colon", "value": 25.7, "unit": "µM"}, {"measurement": "TGI", "setting": "SK-MEL-5 melanoma", "value": "> 100", "unit": "µM"}, {"measurement": "TGI", "setting": "NCI-H23 lung", "value": "> 100", "unit": "µM"}]}]}
